Measured values taken from patent US5684151A, “1-arylsulphonyl, arylcarbonyl and 1-arylphosphonyl-3-phenyl-1,4,5,6-tetrahydropyridazines” (priority 1995, dated 1997).
Read-outs that look alike come from different tables or passages of the source.

Assays:
[1] = biological target: T1, progestin receptor from rabbit uterus (Oryctolagus cuniculus, UniProt P06186); test: Progestin receptor binding (3H-R5020 displacement); settings: rabbit uterine cytosol, 4° C., 18 h, read-out: IC50: Binding affinity for the progestin receptor from rabbit uterus
T1 construct: Cytosolic progestin receptor were obtained by mixing rabbit uterine tissue with a Tris buffer; from tissue; host or cells: rabbit uterus cytosol
Protocol: A progestin initiates a biological response by first binding to a progestin receptor. Affinity for progestin receptors was determined by measuring the ability of compounds to displace a progestin radioligand from those receptors in vitro. Cytosolic progestin receptor were obtained by mixing rabbit uterine tissue with a Tris buffer [0.1M Tris-Hcl, 1 mM Na2 EDTA, 1 mM dithiothreotol, 1 mM sodium molybdate, 1% glycerol, pH 7.4]. The tissue/buffer mixture was homogenized under ice-cold conditions. The homogenate was then centrifuged and the supernatant (cytosol preparation) was decanted and stored at -70° C. and thawed prior to use. The competitive binding assay was performed by mixing ^3 H-R5020, a progestin radioligand, with cytosol preparation and various concentrations of test compounds (prepared in DMSO with a final 5% DMSO concentration). This mixture was then incubated at 4° C. for about 18 hours. Non-specific binding was determined using an unlabelled ligand in excess. After the incubation period, the radioligand bound to receptor was separated from free radioligand using dextran-coated charcoal. The amount of bound radioligand was then determined by liquid scintillation counting. The data were expressed as the concentration of test compound that displaced 50% of the radioligand from the receptor (IC50)
Aspects of the application used in this procedure are described in the following: J. L. McGuire et al., Biochemistry 13, 319, 1974.

[2] = test system: mouse (MC3T3-E1) and human (TE-85) osteoblast-line cells; format: cell-based
Source text: Compounds of the present invention have utility to treat osteoporosis through enhancement of bone calcification rather than traditional approaches which generally involve inhibition of bone degeneration or resorption. The compounds of the present invention have been evaluated as stimulators of proliferation of osteoblast cell and chick calivaria bone organ culture which is predictive of enhancement of bone mass and bone formation in vivo.
The action of select compounds to stimulate osteoblast growth was measured in culture by estimating the rate of DNA synthesis by the rate of ^3 H-thymidine incorporation into DNA. Only cells undergoing mitosis synthesized new DNA and thus only these cells incorporated the radiolabelled DNA-specific thymidine. The stimulation of the proliferation and differentiation of bone-forming cells, osteoblasts, was a prerequisite for an increase in bone formation and bone mass. The ability of agents to increase osteoblast proliferation and differentiation can be predicted by their action on cultured osteoblast-line cells in vitro. In this test, mouse (MC3T3-E1) and human (TE-85) osteoblast-line cells (American Type Tissue Culture Collection, #CRL 1543, Rockville, Md. cloned by Sudo et al., Koriyama, Japan) were cultured in vitro and the effect of various agents were tested on osteoblast cell proliferation. Cells were harvested from large culture flasks where they were allowed to grow to near confluency using trypsin. The cells were plated into 96 well culture plates, 1600 cells in 100 μL per well in Dulbencos Modified Eagle's Medium (DMEM) with 25 mM HEPES buffer, L-glutamine (584 mg/L); D-glucose (4.5 g/L) supplemented with fetal bovine sera (10%); penicillin (100 units/mL) and streptomycin (100 mcg/mL); sodium pyruvate (10 μM final concentration). The cells were allowed to plate overnight in DMEM containing 10% fetal bovine sera at 37° C. in an atmosphere of 5% CO2/95% air. Following their placement into 96 well culture plates all the osteoblast-line cells, either the MC3T3-E1 or the TE-85 cell lines, were allowed an additional 24 hours preincubation period in media containing only 0.1% fetal bovine sera.
Twenty hours later, a 20 μL aliquot of media containing 0.4 μCi of ^3 H-thymidine was added to each culture well. The cells were then incubated an additional 4 hours. The incubation was terminated by aspirating the media and washing with HBSS (Hank's Balanced Salt Solution). The cells were then treated with 100 μL of 0.5% trypsin and 5.3 mM EDTA for 30 minutes at room temperature. The cells were then aspirated onto glass fiber filter and washed with water. The radioactivity on the filters was quantified by liquid scintillation spectroscopy. The rate of ^3 H-thymidine incorporation into DNA was then utilized as an index of cell proliferation. The results are shown in Table 13 expressed as % times control where the control is 100%. […]

T1 sequence (P06186 whole entry): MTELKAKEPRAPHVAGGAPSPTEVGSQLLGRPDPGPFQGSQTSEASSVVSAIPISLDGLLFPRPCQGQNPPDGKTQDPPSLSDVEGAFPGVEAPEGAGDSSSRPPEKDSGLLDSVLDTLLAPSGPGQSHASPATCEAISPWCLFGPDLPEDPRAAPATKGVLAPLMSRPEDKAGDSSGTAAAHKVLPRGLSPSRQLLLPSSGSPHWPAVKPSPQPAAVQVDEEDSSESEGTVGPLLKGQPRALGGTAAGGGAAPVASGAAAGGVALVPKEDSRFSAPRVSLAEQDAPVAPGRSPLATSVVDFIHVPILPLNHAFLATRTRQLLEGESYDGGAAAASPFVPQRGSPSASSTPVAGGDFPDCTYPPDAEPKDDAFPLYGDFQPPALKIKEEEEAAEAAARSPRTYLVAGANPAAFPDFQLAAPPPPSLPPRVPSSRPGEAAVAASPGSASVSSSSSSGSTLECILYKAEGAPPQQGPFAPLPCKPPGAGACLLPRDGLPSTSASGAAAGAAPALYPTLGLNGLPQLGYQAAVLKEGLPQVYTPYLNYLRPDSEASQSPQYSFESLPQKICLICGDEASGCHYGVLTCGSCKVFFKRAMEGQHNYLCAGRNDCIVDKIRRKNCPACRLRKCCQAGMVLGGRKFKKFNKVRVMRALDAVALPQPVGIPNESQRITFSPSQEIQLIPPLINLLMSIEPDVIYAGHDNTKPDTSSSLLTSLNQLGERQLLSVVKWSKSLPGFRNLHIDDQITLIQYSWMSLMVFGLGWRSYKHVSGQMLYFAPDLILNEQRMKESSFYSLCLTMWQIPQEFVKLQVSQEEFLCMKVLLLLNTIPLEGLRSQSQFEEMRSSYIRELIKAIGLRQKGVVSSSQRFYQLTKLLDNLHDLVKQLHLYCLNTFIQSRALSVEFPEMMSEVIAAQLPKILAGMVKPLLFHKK

Row | SMILES | IC50 [1] [nM] | also measured
1 | O=S(=O)(c1ccc(I)cc1)N1CCCC(c2ccc(Cl)cc2)=N1 [Compound 16] | 4.2 | 
2 | O=S(=O)(c1ccc(F)cc1)N1CCCC(c2ccc(Cl)cc2)=N1 [Compound 17] | 48 | 
3 | O=S(=O)(c1ccc(F)cc1)N1CCCC(c2ccc(F)cc2)=N1 [Compound 18] | 204 | 
4 | O=S(=O)(c1ccc(Br)cc1)N1CCCC(c2ccc(F)cc2)=N1 [Compound 19] | 61 | 
5 | O=S(=O)(c1ccc(I)cc1)N1CCCC(c2ccc(F)cc2)=N1 [Compound 20] | 56 | 
6 | O=[N+]([O-])c1ccc(S(=O)(=O)N2CCCC(c3ccc(F)cc3)=N2)c([N+](=O)[O-])c1 [Compound 23] | 3000 | 
7 | O=[N+]([O-])c1ccccc1S(=O)(=O)N1CCCC(c2ccc(F)cc2)=N1 [Compound 24] | 308 | 
8 | COC(=O)c1ccccc1S(=O)(=O)N1CCCC(c2ccc(F)cc2)=N1 [Compound 26] | 451 | 
9 | O=[N+]([O-])c1ccccc1S(=O)(=O)N1CCCC(c2ccc(Cl)cc2)=N1 [Compound 27] | 65 | 
10 | O=[N+]([O-])c1ccc(S(=O)(=O)N2CCCC(c3ccc(Cl)cc3)=N2)c([N+](=O)[O-])c1 [Compound 28] | 3140 | 
11 | COC(=O)c1ccccc1S(=O)(=O)N1CCCC(c2ccc(Cl)cc2)=N1 [Compound 29] | 244 | 
12 | O=S(=O)(c1ccc(Cl)c(Cl)c1)N1CCCC(c2ccc(Cl)cc2)=N1 [Compound 30] | 22 | 
13 | O=S(=O)(c1cc(Cl)cc(Cl)c1)N1CCCC(c2ccc(Cl)cc2)=N1 [Compound 31] | 4 | 
14 | O=S(=O)(c1ccc(C(F)(F)F)cc1)N1CCCC(c2ccc(Cl)cc2)=N1 [Compound 36] | 11.5 | 
15 | O=S(=O)(c1ccccc1)N1CCCC(c2ccc(Cl)cc2)=N1 [Compound 37] | 12.9 | 
16 | O=S(=O)(c1ccc(Cl)cc1)N1CCCC(c2ccccc2)=N1 [Compound 48] | 266 | 
17 | O=S(=O)(c1ccc(Br)cc1)N1CCCC(c2ccccc2)=N1 [Compound 49] | 127 | 
18 | O=S(=O)(c1ccc(I)cc1)N1CCCC(c2ccccc2)=N1 [Compound 50] | 316 | 
19 | O=S(=O)(c1cc(Cl)ccc1Cl)N1CCCC(c2ccccc2)=N1 [Compound 52] | 42 | 
20 | O=[N+]([O-])c1ccc(S(=O)(=O)N2CCCC(c3ccccc3)=N2)cc1 [Compound 53] | 2200 | 
21 | O=S(=O)(c1ccc(F)cc1)N1CCCC(c2ccccc2)=N1 [Compound 54] | 780 | 
22 | CCCCc1ccc(S(=O)(=O)N2CCCC(c3ccccc3)=N2)cc1 [Compound 55] | 21.9 | 
23 | O=S(=O)(c1cccc2ccccc12)N1CCCC(c2ccccc2)=N1 [Compound 56] | 85.2 | 
24 | O=[N+]([O-])c1cc(S(=O)(=O)N2CCCC(c3ccccc3)=N2)ccc1Cl [Compound 58] | 444 | 
25 | O=S(=O)(c1ccc(F)cc1F)N1CCCC(c2ccccc2)=N1 [Compound 59] | 455 | 
26 | O=S(=O)(c1ccc(Cl)c(Cl)c1)N1CCCC(c2ccccc2)=N1 [Compound 60] | 191 | 

Row | SMILES | IC50 [1] [nM] | also measured
27 | O=S(=O)(c1ccc(C(F)(F)F)cc1)N1CCCC(c2ccccc2)=N1 [Compound 61] | 435 | 
28 | O=[N+]([O-])c1cccc(S(=O)(=O)N2CCCC(c3ccccc3)=N2)c1 [Compound 62] | 157 | 
29 | O=S(=O)(c1ccccc1)N1CCCC(c2ccccc2)=N1 [Compound 66] | 375 | 
30 | O=[N+]([O-])c1cc(S(=O)(=O)N2CCCC(c3ccc(Cl)cc3)=N2)ccc1Cl [Compound 67] | 126 | 
31 | O=S(=O)(c1cc(Cl)c(Cl)cc1Cl)N1CCCC(c2ccc(Cl)cc2)=N1 [Compound 68] | 13.4 | 
32 | CCCCc1ccc(C2=NN(S(=O)(=O)c3cccc([N+](=O)[O-])c3)CCC2)cc1 [Compound 70] | 10000 | 
33 | CCCCc1ccc(C2=NN(S(=O)(=O)c3ccc(CCCC)cc3)CCC2)cc1 [Compound 75] | 10000 | 
34 | CCCCc1ccc(C2=NN(S(=O)(=O)c3ccccc3)CCC2)cc1 [Compound 76] | 10000 | 
35 | O=S(=O)(c1ccccc1)N1CCCC(c2ccc(Cl)c(C(F)(F)F)c2)=N1 [Compound 83] | 4.83 | 
36 | O=S(=O)(c1cc(Cl)ccc1Cl)N1CCCC(c2cccc(Cl)c2)=N1 [Compound 91] | 2.39 | 
37 | Cc1ccc(S(=O)(=O)N2CCCC(c3cccc(Cl)c3)=N2)cc1 [Compound 92] | 23.9 | 
38 | O=S(=O)(c1ccc(Cl)cc1)N1CCCC(c2cccc(Cl)c2)=N1 [Compound 93] | 11.1 | 
39 | O=S(=O)(c1ccc(I)cc1)N1CCCC(c2cccc(Cl)c2)=N1 [Compound 96] | 12.1 | 
40 | O=S(=O)(c1cccc(C(F)(F)F)c1)N1CCCC(c2ccc(Cl)c(Cl)c2)=N1 [Compound 98] | 2.5 | 
41 | O=S(=O)(c1ccc(Cl)cc1)N1CCCC(c2ccc(Br)cc2)=N1 [Compound 99] | 21 | 
42 | O=S(=O)(c1ccc(Br)cc1)N1CCCC(c2ccc(Br)cc2)=N1 [Compound 100] | 23 | 
43 | Cc1ccc(S(=O)(=O)N2CCCC(c3ccc(Br)cc3)=N2)cc1 [Compound 101] | 195 | 
44 | O=S(=O)(c1cc(Cl)ccc1Cl)N1CCCC(c2ccc(Br)cc2)=N1 [Compound 102] | 9 | 
45 | O=S(=O)(c1ccccc1)N1CCCC(c2ccc(Br)cc2)=N1 [Compound 103] | 149 | 
46 | O=S(=O)(c1ccc(F)cc1)N1CCCC(c2ccc(Cl)c(Cl)c2)=N1 [Compound 106] | 7.11 | 
47 | COP(=O)(c1ccccc1)N1CCCC(c2ccc(F)cc2)=N1 (stereo not drawn) [Compound 258] |  | Osteoblast Cell Proliferation, 3H-thymidine incorporation vs control (100%) ([2]; 10^-6): 107%; Osteoblast Cell Proliferation, 3H-thymidine incorporation vs control (100%) ([2]; 10^-7): 107%; Osteoblast Cell Proliferation, 3H-thymidine incorporation vs control (100%) ([2]; 10^-8): 108%; Osteoblast Cell Proliferation, 3H-thymidine incorporation vs control (100%) ([2]; 10^-9): 107%; Osteoblast Cell Proliferation, 3H-thymidine incorporation vs control (100%) ([2]; 10^-10): 98%
48 | CCOP(=O)(c1ccccc1)N1CCCC(c2ccc(F)cc2)=N1 (stereo not drawn) [Compound 259] |  | Osteoblast Cell Proliferation, 3H-thymidine incorporation vs control (100%) ([2]; 10^-6): 116%; Osteoblast Cell Proliferation, 3H-thymidine incorporation vs control (100%) ([2]; 10^-7): 96%; Osteoblast Cell Proliferation, 3H-thymidine incorporation vs control (100%) ([2]; 10^-8): 102%; Osteoblast Cell Proliferation, 3H-thymidine incorporation vs control (100%) ([2]; 10^-9): 121%; Osteoblast Cell Proliferation, 3H-thymidine incorporation vs control (100%) ([2]; 10^-10): 106%
49 | COP(=O)(c1ccccc1)N1CCCC(c2ccc(Br)cc2)=N1 (stereo not drawn) [Compound 260] |  | Osteoblast Cell Proliferation, 3H-thymidine incorporation vs control (100%) ([2]; 10^-6): 100%; Osteoblast Cell Proliferation, 3H-thymidine incorporation vs control (100%) ([2]; 10^-7): 115%; Osteoblast Cell Proliferation, 3H-thymidine incorporation vs control (100%) ([2]; 10^-8): 105%; Osteoblast Cell Proliferation, 3H-thymidine incorporation vs control (100%) ([2]; 10^-9): 99%; Osteoblast Cell Proliferation, 3H-thymidine incorporation vs control (100%) ([2]; 10^-10): 90%
50 | Nc1c(Br)cc(C2=NN(C(=O)c3ccc(Cl)c(Cl)c3)CCC2)cc1Br [Compound 265, (3-4-Amino-3,5-dibromophenyl)-1-(3,4-dichlorobenzoyl)-1,4,5,6-tetrahydropyridazine] |  | Osteoblast Cell Proliferation, 3H-thymidine incorporation vs control (100%) ([2]; 10^-7): 110%; Osteoblast Cell Proliferation, 3H-thymidine incorporation vs control (100%) ([2]; 10^-8): 112%; Osteoblast Cell Proliferation, 3H-thymidine incorporation vs control (100%) ([2]; 10^-9): 112%; Osteoblast Cell Proliferation, 3H-thymidine incorporation vs control (100%) ([2]; 10^-10): 115%
51 | CS(=O)(=O)c1ccc(S(=O)(=O)N2CCCC(c3ccc(Cl)c(Cl)c3)=N2)cc1 [Compound 275, 3-(3,4-Dichlorophenyl)-1-(4-methylsulfonylbenzenesulfonyl)-1,4,5,6-tetrahydropyridazine] |  | Osteoblast Cell Proliferation, 3H-thymidine incorporation vs control (100%) ([2]; 10^-7): 145%; Osteoblast Cell Proliferation, 3H-thymidine incorporation vs control (100%) ([2]; 10^-8): 153%; Osteoblast Cell Proliferation, 3H-thymidine incorporation vs control (100%) ([2]; 10^-9): 128%; Osteoblast Cell Proliferation, 3H-thymidine incorporation vs control (100%) ([2]; 10^-10): 136%
